We go through 18 molecules from patent US20130217664A1, “NOVEL COMPOUNDS USEFUL FOR THE TREATMENT OF DEGENERATIVE AND INFLAMMATORY DISEASES” (priority 2012, published 2013).

pIC50: −log10 of the molar value. Read-outs that look alike come from different tables or passages of the source.

One experiment concerns the target T1, human JAK3 (Homo sapiens, UniProt P52333).
T1 construct: catalytic domain (amino acids 781-1124; catalog number PV3855); purchased Invitrogen PV3855
As to the kind of experiment: JAK3 inhibition assay. It is filed as biochemical. The conditions noted are these: recombinant human JAK3 catalytic domain; polyGT substrate. In short, it runs like this: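 Radiometric kinase assay: 0.5 ng JAK3 with 2.5 μg polyGT in Tris pH 7.5/MgCl2 buffer, 1 μM ATP plus 0.25 μCi 33P-γ-ATP, 1% DMSO, 45 min at 30 °C, stopped with phosphoric acid.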

In experiment [1] the test system is pSTAT1(2)-luciferase reporter in HeLa cells triggered with human OSM. Briefly: JAK-STAT signalling assay. It counts as cell-based. Conditions: read-out: JAK-STAT IC50. In short, it runs like this: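 Compound added 60 min before 33 ng/mL (final) human OSM; after overnight stimulation at 37 °C, luciferase signal from a transiently transfected pSTAT1(2) reporter in HeLa cells was read, with LacZ as internal control. EC50 derived from percent-inhibition dose-response curves.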

The target of another experiment is T2, human TYK2 (Homo sapiens, UniProt P29597).
T2 construct: catalytic domain (amino acids 871-1187; catalog number 08-147); purchased Carna Biosciences 08-147
T2 sequence (P29597 871-1187): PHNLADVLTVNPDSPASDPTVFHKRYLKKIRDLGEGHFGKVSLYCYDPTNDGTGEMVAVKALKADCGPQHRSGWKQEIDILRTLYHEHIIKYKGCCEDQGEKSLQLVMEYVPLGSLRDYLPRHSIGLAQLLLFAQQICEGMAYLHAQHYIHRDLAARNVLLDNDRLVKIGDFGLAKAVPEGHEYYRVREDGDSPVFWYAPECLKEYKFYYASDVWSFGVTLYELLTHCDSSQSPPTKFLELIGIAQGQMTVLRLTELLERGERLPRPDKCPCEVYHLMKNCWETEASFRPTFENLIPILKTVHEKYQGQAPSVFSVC
Briefly: TYK2 inhibition assay. It is filed as biochemical. The conditions noted are these: recombinant human TYK2 catalytic domain, polyGT substrate. The essentials:
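Radiometric kinase reaction run 90 min at 30 °C, stopped with phosphoric acid, washed and scintillation-counted.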

In the next experiment the target is T3, human JAK1 (Homo sapiens, UniProt P23458).
T3 construct: catalytic domain, amino acids 866-1154; catalog number PV4774; purchased Invitrogen PV4774
T3 sequence (P23458 866-1154): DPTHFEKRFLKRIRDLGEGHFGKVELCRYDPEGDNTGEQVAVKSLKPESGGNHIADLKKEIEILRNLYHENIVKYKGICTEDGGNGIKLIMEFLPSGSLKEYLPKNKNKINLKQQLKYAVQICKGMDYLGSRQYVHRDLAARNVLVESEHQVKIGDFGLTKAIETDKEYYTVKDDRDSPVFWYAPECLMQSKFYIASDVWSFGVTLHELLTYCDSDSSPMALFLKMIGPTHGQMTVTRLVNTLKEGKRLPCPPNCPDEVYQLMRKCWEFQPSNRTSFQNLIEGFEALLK
As to the kind of experiment: JAK1 inhibition assay (polyGT substrate / Ulight-JAK1 peptide). It counts as biochemical. Conditions: recombinant human JAK1 catalytic domain; polyGT or Ulight-JAK1 peptide assay. In short, it runs like this:
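Signal scaled between vehicle and 10 μM staurosporine. Radiometric polyGT reactions ran 45 min at 30 °C, counted after phosphoric-acid stop. Ulight peptide reactions ran 60 min at room temperature, fluorescence read after adding Eu-PT66 detection mix with EDTA.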

Setting [2] is: Homo sapiens, HeLa, HeLa cells, pSTAT1(2)-luciferase reporter, human OSM 33 ng/mL.
Setting [3] is: HeLa cells, pSTAT1(2)-luciferase reporter, human OSM 33 ng/mL.

T1 sequence (P52333 781-1124): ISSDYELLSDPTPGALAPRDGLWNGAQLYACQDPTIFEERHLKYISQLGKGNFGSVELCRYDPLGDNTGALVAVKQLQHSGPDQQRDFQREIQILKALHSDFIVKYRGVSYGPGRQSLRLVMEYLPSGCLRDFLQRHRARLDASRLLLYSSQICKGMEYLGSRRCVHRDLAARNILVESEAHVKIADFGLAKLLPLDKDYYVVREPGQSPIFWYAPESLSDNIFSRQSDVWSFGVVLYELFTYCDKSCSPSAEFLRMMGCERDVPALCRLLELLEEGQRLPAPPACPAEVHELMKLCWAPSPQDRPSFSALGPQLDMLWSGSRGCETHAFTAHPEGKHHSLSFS

Consider `CCc1cc(C2=CCN(C(=O)N3CCC3)CC2)ccc1N(C)c1cc2c(cn1)ncn2C` [Compound 205, azetidin-1-yl(4-(3-ethyl-4-(methyl(1-methyl-1H-imidazo[4,5-c]pyridin-6-yl)amino)phenyl)-5,6-dihydropyridin-1(2H)-yl)methanone], for which the negative-log IC50 (pIC50) (commonly the negative decadic logarithm of the IC50, by convention in mol/L) on human JAK3 was 6.30 to 7.00; in experiment [1] (setting [2]) it was 6.30 to 9.00; on human TYK2, 7.00 to 11.00; at human JAK1 it was 7.00 to 11.00.

Take `CCc1cc(C2=CCN(C(=O)N(C)CC)CC2)ccc1N(C)c1cc2c(cn1)ncn2C` [Compound 206, N-ethyl-4-(3-ethyl-4-(methyl(1-methyl-1H-imidazo[4,5-c]pyridin-6-yl)amino)phenyl)-N-methyl-5,6-dihydropyridine-1(2H)-carboxamide]: the pIC50 was 6.30 to 7.00 at human JAK3, below 6.00 in experiment [1] (setting [2]), 7.00 to 11.00 on human TYK2 and 7.00 to 11.00 at human JAK1.

As for `CCc1cc(C2=CCN(C(=O)N(C)CC#N)CC2)ccc1N(C)c1cc2c(cn1)ncn2C` [Compound 207, N-(Cyanomethyl)-4-(3-ethyl-4-(methyl(1-methyl-1H-imidazo[4,5-c]pyridin-6-yl)amino)phenyl)-N-methyl-5,6-dihydropyridine-1(2H)-carboxamide], the pIC50 at human JAK3 is 6.30 to 7.00; in experiment [1] (Homo sapiens, HeLa), 6.00 to 6.30; at human TYK2 it was 7.00 to 11.00; at human JAK1, 7.00 to 11.00.

For `CCc1cc(-c2cnn(Cc3ccc(OC)cc3)c2)ccc1N(C)c1cc2c(cn1)ncn2C` [Compound 208, N-(2-ethyl-4-(1-(4-methoxybenzyl)-1H-pyrazol-4-yl)phenyl)-N,1-dimethyl-1H-imidazo[4,5-c]pyridin-6-amine], the pIC50 on human JAK3 is 6.30 to 7.00; in experiment [1] (setting [2]), 6.30 to 9.00; on human TYK2 it was 7.00 to 11.00; on human JAK1 it was 7.00 to 11.00.

For the molecule `CCc1cc(-c2cnn(CC#N)c2)ccc1N(C)c1cc2c(cn1)ncn2C` [Compound 209, 2-(4-(3-ethyl-4-(methyl(1-methyl-1H-imidazo[4,5-c]pyridin-6-yl)amino)phenyl)-1H-pyrazol-1-yl)acetonitrile], the pIC50 at human JAK3 is 6.30 to 7.00; in experiment [1] (setting [2]), 6.00 to 6.30; on human TYK2 it was 6.30 to 7.00; at human JAK1, 7.00 to 11.00.

Consider `CCc1cc(-c2cnc(NC)nc2)ccc1N(C)c1cc2c(cn1)ncn2C` [Compound 211, N-(2-Ethyl-4-(2-(methylamino)pyrimidin-5-yl)phenyl)-N,1-dimethyl-1H-imidazo[4,5-d]pyridin-6-amine], for which the pIC50 at human JAK3 was 6.00 to 6.30; in experiment [1] (setting [2]), 6.00 to 6.30; on human TYK2, 7.00 to 11.00; at human JAK1 it was 7.00 to 11.00.

For `CCc1cc(-c2cnc(OC3COC3)nc2)ccc1N(C)c1cc2c(cn1)ncn2C` [Compound 212, N-(2-Ethyl-4-(2-(oxetan-3-yloxy)pyrimidin-5-yl)phenyl)-N,1-dimethyl-1H-imidazo[4,5-c]pyridin-6-amine], the pIC50 at human JAK3 was below 6.00; in experiment [1] (setting [2]), below 6.00; at human TYK2, 6.30 to 7.00; at human JAK1 it was 7.00 to 11.00.

On to `CCc1cc(C2=CCN(C(=O)NC3COC3)CC2)ccc1N(C)c1cc2c(cn1)ncn2C` [Compound 215], for which the pIC50 on human JAK3 is 6.30 to 7.00; in experiment [1] (setting [2]), below 6.00; at human TYK2, 7.00 to 11.00; at human JAK1, 7.00 to 11.00.

Turning to `CCc1cc(C2=CCN(C(=O)OCC#N)CC2)ccc1N(C)c1cc2c(cn1)ncn2C` [Compound 216, Cyanomethyl 4-(3-ethyl-4-(methyl(1-methyl-1H-imidazo[4,5-c]pyridin-6-yl)amino)phenyl)-5,6-dihydropyridine-1(2H)-carboxylate], the negative logarithm of the IC50 (pIC50) on human JAK3 is 6.30 to 7.00; in experiment [1] (Homo sapiens, HeLa), below 6.00; on human TYK2, 7.00 to 11.00; on human JAK1, 7.00 to 11.00.

As to `CCc1cc(-c2cnc(OCC#N)nc2)ccc1N(C)c1cc2c(cn1)ncn2C` [Compound 217, 2-(5-(3-ethyl-4-(methyl(1-methyl-1H-imidazo[4,5-c]pyridin-6-yl)amino)phenyl)pyrimidin-2-yloxy)acetonitrile], the pIC50 on human JAK3 was below 6.00; in experiment [1] (setting [2]) it was below 6.00; at human TYK2, 6.30 to 7.00; on human JAK1, 7.00 to 11.00.

For the molecule `CCc1cc(-c2cncc(S(C)(=O)=O)c2)ccc1N(C)c1cc2c(cn1)ncn2C` [Compound 218, N-(2-ethyl-4-(5-(methylsulfonyl)pyridin-3-yl)phenyl)-N,1-dimethyl-1H-imidazo[4,5-c]pyridin-6-amine], the pIC50 was below 6.00 on human JAK3, below 6.00 in experiment [1] (setting [2]), 6.00 to 6.30 on human TYK2 and 7.00 to 11.00 on human JAK1.

For `CCc1cc(-c2cnn(CCN3CCCC3)c2)ccc1N(C)c1cc2c(cn1)ncn2C` [Compound 219, N-(2-ethyl-4-(1-(2-(pyrrolidin-1-yl)ethyl)-1H-pyrazol-4-yl)phenyl)-N,1-dimethyl-1H-imidazo[4,5-c]pyridin-6-amine], the pIC50 on human JAK3 is below 6.00; in experiment [1] (setting [2]), 6.30 to 9.00; at human TYK2 it was 7.00 to 11.00; on human JAK1, 7.00 to 11.00.

As for `CCc1cc(-c2cnn(CC(=O)N(C)C)c2)ccc1N(C)c1cc2c(cn1)ncn2C` [Compound 220, 2-(4-(3-ethyl-4-(methyl(1-methyl-1H-imidazo[4,5-c]pyridin-6-yl)amino)phenyl)-1H-pyrazol-1-yl)-N,N-dimethylacetamide], the negative logarithm of the IC50 (pIC50) is 6.30 to 7.00 on human JAK3, 6.00 to 6.30 in experiment [1] (setting [2]), 7.00 to 11.00 at human TYK2 and 7.00 to 11.00 on human JAK1.

As for `CCc1cc(-c2cnn(CC(=O)C(C)(C)C)c2)ccc1N(C)c1cc2c(cn1)ncn2C` [Compound 221, 1-(4-(3-ethyl-4-(methyl(1-methyl-1H-imidazo[4,5-c]pyridin-6-yl)amino)phenyl)-1H-pyrazol-1-yl)-3,3-dimethylbutan-2-one], the pIC50 at human JAK3 is below 6.00; in experiment [1] (setting [2]), below 6.00; on human TYK2 it was 6.30 to 7.00; at human JAK1 it was 7.00 to 11.00.

Consider `CCc1cc(-c2cnn(CC(N)=O)c2)ccc1N(C)c1cc2c(cn1)ncn2C` [Compound 222, 2-(4-(3-Ethyl-4-(methyl(1-methyl-1H-imidazo[4,5-c]pyridin-6-yl)amino)phenyl)-1H-pyrazol-1-yl)acetamide], for which the pIC50 at human JAK3 was 6.30 to 7.00; in experiment [1] (setting [2]), 6.30 to 9.00; at human TYK2 it was 7.00 to 11.00; on human JAK1 it was 7.00 to 11.00.

With `CCC(=O)N1CCC(c2ccc(N(C)c3cc4c(cn3)ncn4C)c(CC)c2)CC1` [Compound 223, 1-(4-(3-ethyl-4-(methyl(1-methyl-1H-imidazo[4,5-c]pyridin-6-yl)amino)phenyl)piperidin-1-yl)propan-1-one], the pIC50 was 6.30 to 7.00 on human JAK3, 6.30 to 9.00 in experiment [1] (setting [3]), 7.00 to 11.00 at human TYK2 and 7.00 to 11.00 on human JAK1.

For `CCc1cc(C2CCN(C(=O)CC#N)CC2)ccc1N(C)c1cc2c(cn1)ncn2C` [Compound 224, 3-(4-(3-ethyl-4-(methyl(1-methyl-1H-imidazo[4,5-c]pyridin-6-yl)amino)phenyl)piperidin-1-yl)-3-oxopropanenitrile], the pIC50 was 6.30 to 7.00 at human JAK3, 6.00 to 6.30 in experiment [1] (setting [3]), 7.00 to 11.00 at human TYK2 and 7.00 to 11.00 at human JAK1.

For the molecule `CCc1cc(C2CCN(C(=O)COC)CC2)ccc1N(C)c1cc2c(cn1)ncn2C` [Compound 226, 1-(4-(3-ethyl-4-(methyl(1-methyl-1H-imidazo[4,5-c]pyridin-6-yl)amino)phenyl)piperidin-1-yl)-2-methoxyethanone], the pIC50 at human JAK3 was 6.30 to 7.00; in experiment [1] (setting [3]) it was below 6.00; at human TYK2, 7.00 to 11.00; at human JAK1, 7.00 to 11.00.
